From patent publication US10226044B2, “Agricultural and horticultural composition and method for cultivating plant” (AJINOMOTO CO., INC., priority 2014, dated 2019)

Experiments:
[1] = test system: tomato (Momotaro Fight); experiment: Sprinkling of various compounds on tomato (Momotaro): first appearance, coloring and number of fruit; type: in vivo
Protocol: Three seeds of tomato (Momotaro Fight) were shown in compost contained in a slit pot, and cultivated in the same manner as described in Example 1, provided that the cultivation was performed in a greenhouse (daytime temperature was 25° C. (6:00 to 20:00), and night temperature was 15° C. (20:00 to 6:00)). The compost and application of fertilizer were the same or performed in the same manner as those described in Example 1. After 3 weeks, one root clump was left, and the others were thinned out. When a flower cluster of the first tier appeared, a support was put up, and after a flower cluster of the second tier appeared, pinching was performed (pinching of terminal bud). After the plants of four root clumps uniformly grew, and flower buds began to appear, water (Con.), 10 mM L-isoleucine aqueous solution (Ile), 10 mM monosodium glutamate aqueous solution (GluNa), 5 mM urea aqueous solution (Urea), or 10 mM phenylalanine aqueous solution (Phe) was sprinkled on the whole plants every two weeks. The sprinkled volume was adjusted in accordance with the growth of the plants, and it was 15 to 30 mL per one root clump. The concentration of urea was 5 mM so that nitrogen amount provided by it was the same as that provided by each of the amino acids. Then, the first appearance of fruit, ripening of fruit, and number of fruit produced were investigated for each root clump.

[2] = test system: LOX, JAR1, PI and MYC2 genes; experiment: Investigation of isoleucine concentration for sprinkling (I): gene expression; type: in vivo, cherry tomato (Suncherry Pure); details: 1 mM, 4 mM, 7 mM or 10 mM Ile, 20 mL per plant, sprinkled twice; leaves 3 hours after second sprinkling
Protocol: One week afterward, Ile was sprinkled again in the same manner, the leaves were collected 3 hours thereafter, and expression of the LOX, JAR1, PI and MYC2 genes were analyzed in the same manner as described in Example 5.

[3] = test system: LOX, JAR1, PI and MYC2 genes; experiment: Investigation of isoleucine concentration for sprinkling (II): gene expression; type: in vivo, tomato (Caddy); details: 50 mM Ile, 3 mL on leaf surfaces (0.01, 0.1, 50, 100 mM tested)
Protocol: Tomato plants (variety: Caddy, Tokita Seed) were cultivated in a biotron room in the same manner as described in Example 1. Three weeks after sowing, 3 mL of water, or a 0.01 mM, 0.1 mM, 50 mM, or 100 mM isoleucine aqueous solution (Ile) was sprinkled on leaf surfaces of each plant, sampling was performed from the second foliage leaves, and expression of LOX, JAR1, PI and MYC2 genes were analyzed in the same manner as described in Example

[4] = test system: middle size fruit-bearing tomato (Tsukutsuku-shi); experiment: Ripening and harvestable bunch number of middle size fruit-bearing tomato (Tsukutsuku-shi); type: in vivo; details: 3 mM Ile + 0.2% Squash
Protocol: For the test, middle size fruit-bearing tomato plants in the second half of their growth (variety, Tsukutsuku-shi) that were cultivated in a greenhouse and bore fruit of the 12th tier were used. Neighboring 12 root clumps of the tomato plants were selected, 6 root clumps of them were used for control group receiving no treatment, and the other 6 root clumps were used for the Ile treatment group. […] The total volume of the solution sprinkled on the plants of 6 root clumps was 600 ml. After the treatment, the change in color of tomatoes was confirmed and harvested from each bunch on 11th, […], and 27th days. When substantially all the fruit colored (ripened), or many fruit were ready to overmature, that is, when the top of the fruit was still green, the fruit were harvested. The numbers of bunches harvested on the 11th day after the treatment were 3 for the no treatment group, and 7 for the Ile treatment group. The numbers of bunches harvested on the 18th day after the treatment were 4 for the no treatment group, and 3 for the Ile treatment group.

[5] = test system: VR callus derived from European grape; experiment: Anthocyanin content of grape calluses treated with amino acids; type: cell-based, Vitis vinifera L.
Protocol: A cell line (VR, management number RPC00003) derived from European grape (Vitis vinifera L.) and stored in the Institute of Physical and Chemical Research, BioResource Center was subcultured on the MS agar medium. The subcultured VR callus was transferred to the MS agar medium containing a 5 mM solution of a different amino acid, and cultured. For the positive control, abscisic acid (ABA), for which coloring-promoting effect is known, was used at 100 μM (Jeong et al., Plant Science, 167:247-252, 2004). On the 5th day after the transfer, the callus was lyophilized and ground, and anthocyanin was extracted from it by using a 1% HCl/MeOH solution. Absorbance of the extract was measured at 530 nm, and the content of anthocyanin was measured by using cyanidine 3-glucoside as a standard substance.
(2) In the same manner as described above, anthocyanin content of grape calluses treated with isoleucine and proline, respectively, were measured.

[6] = test system: Phelipanche aegyptiaca; details: plants cultivated on an agar medium; cited from earlier work

CC[C@H](C)[C@H](N)C(=O)O [Ile, L-isoleucine]
color of fruit obtained from flowers that bloomed on the same day ([1]; 10 mM, fruit of water-sprinkled plant was green): already turned color to red
number of fruit turning color to orange or red ([1]; 107th day after sowing, per four root clumps, water: 0): 4
number of harvested fruits ([1]; after cultivation for 3 months after sowing, per four root clumps, water: 8): 16
Expression of the LOX, JAR1, PI and MYC2 genes [2]: increased substantially in an Ile concentration-dependent manner
Expression of the LOX, JAR1, PI and MYC2 genes [3]: promoted
number of bunches harvested on the 11th day after the treatment ([4]; 10 labeled bunches, no treatment group: 3): 7
number of bunches harvested on the 27th day after the treatment ([4]; no treatment group: 3): 1
number of bunches harvested on the 18th day after the treatment ([4]; no treatment group: 4): 3
number of immature (unripened, green) fruits among the harvested fruit of 10 bunches ([4]; no treatment group: 15 of 85): 8
total harvested fruit of 10 bunches ([4]; no treatment group: 85): 86
anthocyanin content of callus, comparison of amino acids ([5]; 5 mM, 5th day): highest
change in color of the grape callus (anthocyanin content) ([5]; Ile of 1 mM or higher, Pro compared with Ile): promoted
infection of Phelipanche aegyptiaca in Arabidopsis thaliana [6]: ineffective
